Assays:
Test in all cases: relative viability (nuclei count vs DMSO), 5 days (fraction); higher = more cells survive
NCI-H647 = test system: NCI-H647
How it was run: (§1)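 Lung cancer cell lines were pin-tool dosed in 1536-well plates on the day after seeding, with either a lone drug or a fixed anchor-drug dose plus five library-drug doses (not always all listed) in √10 steps. Nuclei were counted on 4× images after 5 days. Relative viability is the ratio of treated-well to vehicle-well nuclei counts, with each value a median of duplicate plates.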

H3255 = test system: H3255
How it was run: as §1

COR-L23 = test system: COR-L23
How it was run: as §1

LOU-NH91 = test system: LOU-NH91
How it was run: as §1

HCC-15 = test system: HCC-15
How it was run: as §1

NCI-H2347 = test system: NCI-H2347
How it was run: as §1

UMC-11 = test system: UMC-11
How it was run: as §1

NCI-H1563 = test system: NCI-H1563
How it was run: as §1

PC-14 = test system: PC-14
How it was run: as §1

NCI-H1734 = test system: NCI-H1734
How it was run: as §1

NCI-H2405 = test system: NCI-H2405
How it was run: as §1

NCI-H520 = test system: NCI-H520
How it was run: as §1

NCI-H2023 = test system: NCI-H2023
How it was run: as §1

NCI-H1650 = test system: NCI-H1650
How it was run: as §1

NCI-H322M = test system: NCI-H322M
How it was run: as §1

NCI-H441 = test system: NCI-H441
How it was run: as §1

NCI-H3122 = test system: NCI-H3122
How it was run: as §1

EPLC-272H = test system: EPLC-272H
How it was run: as §1

201T = test system: 201T
How it was run: as §1

With `O=c1cc(N2CCOCC2)oc2c(-c3cccc4c3sc3ccccc34)cccc12` + CC(C)C[C@H](NC(=O)[C@H](Cc1ccccc1)NC(=O)c1cnccn1)B(O)O [Bortezomib] (partner 0.002 µM) as the molecule, how does the relative viability (NCI-H647; first compound 0.01 µM) read?
Its relative viability is 1.01.

And the relative viability (NCI-H647; first compound 0.03162 µM)?
Its relative viability is 1.1.

What about the relative viability (NCI-H647; first compound 0.1 µM) of the same molecule?
The relative viability was 0.98.

And the relative viability (NCI-H647; first compound 0.3162 µM)?
The relative viability was 1.02.

And the relative viability (NCI-H647; first compound 1 µM)?
Its relative viability is 0.924.

And the relative viability (H3255; first compound 0.01 µM)?
Its relative viability is 0.696.

And the relative viability (H3255; first compound 0.03162 µM)?
Its relative viability is 0.806.

What about the relative viability (H3255; first compound 0.1 µM) of the same molecule?
Its relative viability is 0.761.

What about the relative viability (H3255; first compound 0.3162 µM) of the same molecule?
The relative viability was 0.854.

What about the relative viability (H3255; first compound 1 µM) of the same molecule?
The relative viability was 0.604.

And the relative viability (COR-L23; first compound 0.01 µM)?
Its relative viability is 1.03.

What about the relative viability (COR-L23; first compound 0.03162 µM) of the same molecule?
Its relative viability is 1.

What about the relative viability (COR-L23; first compound 0.1 µM) of the same molecule?
Its relative viability is 1.09.

And the relative viability (COR-L23; first compound 0.3162 µM)?
The relative viability was 0.904.

What about the relative viability (COR-L23; first compound 1 µM) of the same molecule?
The relative viability was 1.03.

What about the relative viability (LOU-NH91; first compound 0.01 µM) of the same molecule?
The relative viability was 0.448.

What about the relative viability (LOU-NH91; first compound 0.03162 µM) of the same molecule?
Its relative viability is 0.487.

And the relative viability (LOU-NH91; first compound 0.1 µM)?
The relative viability was 0.538.

What about the relative viability (LOU-NH91; first compound 0.3162 µM) of the same molecule?
The relative viability was 0.548.

What about the relative viability (LOU-NH91; first compound 1 µM) of the same molecule?
Its relative viability is 0.457.

What about the relative viability (HCC-15; first compound 0.01 µM) of the same molecule?
Its relative viability is 0.948.

And the relative viability (HCC-15; first compound 0.03162 µM)?
Its relative viability is 1.06.

And the relative viability (HCC-15; first compound 0.1 µM)?
Its relative viability is 1.12.

What about the relative viability (HCC-15; first compound 0.3162 µM) of the same molecule?
Its relative viability is 0.948.

And the relative viability (HCC-15; first compound 1 µM)?
Its relative viability is 1.04.

And the relative viability (NCI-H2347; first compound 0.01 µM)?
Its relative viability is 1.15.

What about the relative viability (NCI-H2347; first compound 0.03162 µM) of the same molecule?
The relative viability was 1.12.

What about the relative viability (NCI-H2347; first compound 0.1 µM) of the same molecule?
Its relative viability is 0.838.

What about the relative viability (NCI-H2347; first compound 0.3162 µM) of the same molecule?
The relative viability was 0.835.

What about the relative viability (NCI-H2347; first compound 1 µM) of the same molecule?
Its relative viability is 0.839.

And the relative viability (UMC-11; first compound 0.01 µM)?
Its relative viability is 0.63.

What about the relative viability (UMC-11; first compound 0.03162 µM) of the same molecule?
Its relative viability is 0.505.

What about the relative viability (UMC-11; first compound 0.1 µM) of the same molecule?
The relative viability was 0.72.

And the relative viability (UMC-11; first compound 0.3162 µM)?
The relative viability was 0.736.

What about the relative viability (UMC-11; first compound 1 µM) of the same molecule?
The relative viability was 0.728.

What about the relative viability (NCI-H1563; first compound 0.01 µM) of the same molecule?
Its relative viability is 1.

And the relative viability (NCI-H1563; first compound 0.03162 µM)?
Its relative viability is 0.809.

What about the relative viability (NCI-H1563; first compound 0.1 µM) of the same molecule?
Its relative viability is 0.9.

What about the relative viability (NCI-H1563; first compound 0.3162 µM) of the same molecule?
Its relative viability is 0.734.

What about the relative viability (NCI-H1563; first compound 1 µM) of the same molecule?
Its relative viability is 0.762.

And the relative viability (PC-14; first compound 0.01 µM)?
Its relative viability is 0.954.

And the relative viability (PC-14; first compound 0.03162 µM)?
Its relative viability is 0.763.

What about the relative viability (PC-14; first compound 0.1 µM) of the same molecule?
Its relative viability is 0.868.

What about the relative viability (PC-14; first compound 0.3162 µM) of the same molecule?
Its relative viability is 0.772.

And the relative viability (PC-14; first compound 1 µM)?
Its relative viability is 0.864.

What about the relative viability (NCI-H1734; first compound 0.01 µM) of the same molecule?
The relative viability was 0.92.

What about the relative viability (NCI-H1734; first compound 0.03162 µM) of the same molecule?
The relative viability was 0.808.

And the relative viability (NCI-H1734; first compound 0.1 µM)?
Its relative viability is 1.01.

And the relative viability (NCI-H1734; first compound 0.3162 µM)?
Its relative viability is 0.938.

And the relative viability (NCI-H1734; first compound 1 µM)?
Its relative viability is 0.899.

And the relative viability (NCI-H2405; first compound 0.01 µM)?
Its relative viability is 1.01.

What about the relative viability (NCI-H2405; first compound 0.03162 µM) of the same molecule?
Its relative viability is 0.941.

What about the relative viability (NCI-H2405; first compound 0.1 µM) of the same molecule?
Its relative viability is 1.03.

And the relative viability (NCI-H2405; first compound 0.3162 µM)?
Its relative viability is 0.987.

What about the relative viability (NCI-H2405; first compound 1 µM) of the same molecule?
Its relative viability is 0.988.

And the relative viability (NCI-H520; first compound 0.01 µM)?
Its relative viability is 0.66.

And the relative viability (NCI-H520; first compound 0.03162 µM)?
The relative viability was 0.446.

What about the relative viability (NCI-H520; first compound 0.1 µM) of the same molecule?
Its relative viability is 0.472.

And the relative viability (NCI-H520; first compound 0.3162 µM)?
Its relative viability is 0.64.

And the relative viability (NCI-H520; first compound 1 µM)?
The relative viability was 0.752.

What about the relative viability (NCI-H2023; first compound 0.01 µM) of the same molecule?
The relative viability was 1.04.

What about the relative viability (NCI-H2023; first compound 0.03162 µM) of the same molecule?
The relative viability was 1.02.

And the relative viability (NCI-H2023; first compound 0.1 µM)?
Its relative viability is 1.05.

And the relative viability (NCI-H2023; first compound 0.3162 µM)?
The relative viability was 0.936.

And the relative viability (NCI-H2023; first compound 1 µM)?
Its relative viability is 0.907.

What about the relative viability (NCI-H1650; first compound 0.03162 µM) of the same molecule?
The relative viability was 0.243.

What about the relative viability (NCI-H1650; first compound 0.1 µM) of the same molecule?
The relative viability was 0.193.

What about the relative viability (NCI-H1650; first compound 0.3162 µM) of the same molecule?
Its relative viability is 0.219.

What about the relative viability (NCI-H1650; first compound 1 µM) of the same molecule?
Its relative viability is 0.175.

And the relative viability (NCI-H322M; first compound 0.01 µM)?
Its relative viability is 1.24.

What about the relative viability (NCI-H322M; first compound 0.03162 µM) of the same molecule?
The relative viability was 1.39.

And the relative viability (NCI-H322M; first compound 0.3162 µM)?
Its relative viability is 1.19.

And the relative viability (NCI-H322M; first compound 1 µM)?
Its relative viability is 1.03.

What about the relative viability (NCI-H441; first compound 0.01 µM) of the same molecule?
The relative viability was 0.443.

What about the relative viability (NCI-H441; first compound 0.03162 µM) of the same molecule?
Its relative viability is 0.565.

What about the relative viability (NCI-H441; first compound 0.1 µM) of the same molecule?
The relative viability was 0.487.

What about the relative viability (NCI-H441; first compound 0.3162 µM) of the same molecule?
The relative viability was 0.301.

And the relative viability (NCI-H441; first compound 1 µM)?
Its relative viability is 0.684.

And the relative viability (NCI-H3122; first compound 0.01 µM)?
The relative viability was 1.02.

And the relative viability (NCI-H3122; first compound 0.03162 µM)?
The relative viability was 0.907.

And the relative viability (NCI-H3122; first compound 0.1 µM)?
Its relative viability is 1.02.

What about the relative viability (NCI-H3122; first compound 0.3162 µM) of the same molecule?
The relative viability was 0.947.

And the relative viability (NCI-H3122; first compound 1 µM)?
Its relative viability is 1.02.

And the relative viability (EPLC-272H; first compound 0.01 µM)?
The relative viability was 0.903.

And the relative viability (EPLC-272H; first compound 0.03162 µM)?
The relative viability was 0.916.

What about the relative viability (EPLC-272H; first compound 0.3162 µM) of the same molecule?
Its relative viability is 0.854.

And the relative viability (EPLC-272H; first compound 1 µM)?
Its relative viability is 0.935.

What about the relative viability (201T; first compound 0.01 µM) of the same molecule?
The relative viability was 1.07.

What about the relative viability (201T; first compound 0.03162 µM) of the same molecule?
The relative viability was 1.09.

What about the relative viability (201T; first compound 0.1 µM) of the same molecule?
Its relative viability is 0.957.

What about the relative viability (201T; first compound 0.3162 µM) of the same molecule?
Its relative viability is 1.08.

And the relative viability (201T; first compound 1 µM)?
The relative viability was 1.1.
